Data reported in US7498349B2, “Biaryl compounds having anti-infective activity” (Genesoft Pharmaceuticals, Inc., priority 2002, dated 2009).
Converted amounts (≈) assume the structure as drawn.

Tests used:
C. albicans ATCC 38247 = assay: MIC, antifungal assay; type: cell-based, Candida albicans; conditions: C. albicans ATCC 38247
S. aureus ATCC 33591 = assay: MIC, NCCLS broth microdilution assay; type: cell-based, Staphylococcus aureus; conditions: S. aureus ATCC 33591
Source text: (§1) In vitro biological activity data were collected for a variety of microorganisms, including Bacillus cereus (ATCC 11778), Staphylococcus aureus (ATCC 33591; ATCC 27660, a methicillin resistant strain (MRSA); ATCC 13709, a methicillin sensitive strain (MSSA)), Escherichia coli (ATCC 25922), Enterococcus faecalis (ATCC 29212), Streptococcus pneumoniae (ATCC 49619; ATCC 51422, a penicillin resistant strain (PRSP)), Enterococcus faecium (ATCC 51559, a vancomycin resistant strain (VRE)), and Staphylococcus epidermidis (ATCC 12228).
(§2) The minimal inhibition concentration (MIC) of these compounds was determined using the National Committee for Clinical Laboratory Standards (NCCLS) broth microdilution assay in microtiter plates, as set forth in: (1) the guidelines of the National Committee for Clinical Laboratory Standards (NCCLS) Document M7-A4 (NCCLS, 1997); (2) the guidelines of the National Committee for Clinical Laboratory Standards (NCCLS) Document M11-A4 (NCCLS, 1997); and (3) the guidelines and reference method of the National Committee for Clinical Laboratory Standards (NCCLS) Document M27 -T (NCCLS, 1995).

S. aureus ATCC 27660 = assay: MIC, NCCLS broth microdilution assay; type: cell-based, Staphylococcus aureus; conditions: S. aureus ATCC 27660, methicillin resistant strain (MRSA)
E. faecalis ATCC 29212 = assay: MIC, NCCLS broth microdilution assay; type: cell-based, Enterococcus faecalis; conditions: E. faecalis ATCC 29212
E. coli ATCC 25922 = assay: MIC, NCCLS broth microdilution assay; type: cell-based, Escherichia coli; conditions: E. coli ATCC 25922
S. aureus ATCC 13709 = assay: MIC, NCCLS broth microdilution assay; type: cell-based, Staphylococcus aureus; conditions: S. aureus ATCC 13709, methicillin sensitive strain (MSSA)
B. cereus ATCC 11778 = assay: MIC, NCCLS broth microdilution assay; type: cell-based, Bacillus cereus; conditions: B. cereus ATCC 11778
[1] = test system: S. epidermidis ATCC 12228; assay: MIC, NCCLS broth microdilution assay; type: cell-based, Staphylococcus epidermidis
Source text: as §1, §2

S. pneumoniae ATCC 49619 = assay: MIC, NCCLS broth microdilution assay; type: cell-based, Streptococcus pneumoniae; conditions: S. pneumoniae ATCC 49619

| MIC (C. albicans ATCC 38247; Candida albicans, ATCC38247, read-out: Minimum Inhibitory Concentration (MIC)) | MIC (S. aureus ATCC 33591; Staphylococcus aureus, ATCC33591, read-out: Minimum Inhibitory Concentration (MIC)) | MIC (S. aureus ATCC 27660; Staphylococcus aureus, ATCC 27660 / MRSA, read-out: Minimum Inhibitory Concentration (MIC)) | MIC (E. faecalis ATCC 29212; Enterococcus faecalis, ATCC29212, read-out: Minimum Inhibitory Concentration (MIC)) | MIC (E. coli ATCC 25922; Escherichia coli, ATCC25922, read-out: Minimum Inhibitory Concentration (MIC)) | MIC (S. aureus ATCC 13709; Staphylococcus aureus, ATCC 13709 / MSSA, read-out: Minimum Inhibitory Concentration (MIC)) | MIC (B. cereus ATCC 11778; Bacillus cereus, ATCC11778, read-out: Minimum Inhibitory Concentration (MIC)) | MIC ([1]; Staphylococcus epidermidis, ATCC12228, read-out: Minimum Inhibitory Concentration (MIC)) | Compound | Minimum Inhibitory Concentration (MIC) (C. albicans ATCC 38247) | Minimum Inhibitory Concentration (MIC) (S. aureus ATCC 33591) | Minimum Inhibitory Concentration (MIC) (S. aureus ATCC 27660) | Minimum Inhibitory Concentration (MIC) (E. faecalis ATCC 29212) | Minimum Inhibitory Concentration (MIC) (E. coli ATCC 25922) | Minimum Inhibitory Concentration (MIC) (S. aureus ATCC 13709) | Minimum Inhibitory Concentration (MIC) (B. cereus ATCC 11778) | Minimum Inhibitory Concentration (MIC) [1] | Minimum Inhibitory Concentration (MIC) (S. pneumoniae ATCC 49619) |
| --- | --- | --- | --- | --- | --- | --- | --- | --- | --- | --- | --- | --- | --- | --- | --- | --- | --- |
|  |  |  |  |  |  |  |  | CN(CCCN)CCCNc1snc(C(=O)Nc2ccc(-c3cc4ccccc4o3)cc2)c1Cl [Compound A-8] | ++ (4 < MIC < 12) | +++ (MIC ≦ 4) | +++ (MIC ≦ 4) | +++ (MIC ≦ 4) | + (12 ≦ MIC ≦ 32) | +++ (MIC ≦ 4) | +++ (MIC ≦ 4) | +++ (MIC ≦ 4) | + (12 ≦ MIC ≦ 32) |
|  |  |  |  |  |  |  |  | O=C(Nc1ccc(-c2cc3ccccc3o2)cc1)c1cccnc1NCCCNC1CCCCC1 [Compound A-12] | + (12 ≦ MIC ≦ 32) |  |  | ++ (4 < MIC < 12) | >32 µg/mL |  | + (12 ≦ MIC ≦ 32) | + (12 ≦ MIC ≦ 32) | ++ (4 < MIC < 12) |
|  |  |  |  |  |  |  |  | NCCCCNc1ncccc1C(=O)Nc1ccc(-c2cc3ccccc3o2)cc1 [Compound A-18] | ++ (4 < MIC < 12) | +++ (MIC ≦ 4) | +++ (MIC ≦ 4) | ++ (4 < MIC < 12) | >32 µg/mL | +++ (MIC ≦ 4) | +++ (MIC ≦ 4) | +++ (MIC ≦ 4) | +++ (MIC ≦ 4) |
|  |  |  |  |  |  |  |  | NCCNc1ncccc1C(=O)Nc1ccc(-c2cc3ccccc3o2)cc1 [Compound A-19] | ++ (4 < MIC < 12) | +++ (MIC ≦ 4) | +++ (MIC ≦ 4) | +++ (MIC ≦ 4) | >32 µg/mL | +++ (MIC ≦ 4) | +++ (MIC ≦ 4) | +++ (MIC ≦ 4) | + (12 ≦ MIC ≦ 32) |
| 4 to 12 µg/mL (≈ 8.08 to 24.2 µM) | < 4 µg/mL | < 4 µg/mL | < 4 µg/mL | 12 to 32 µg/mL (≈ 24.2 to 64.6 µM) | < 4 µg/mL | > 32 µg/mL | < 4 µg/mL | Cc1cc(NC(=O)c2nsc(NCCN3CCCCC3)c2Cl)ccc1-c1cc2ccccc2o1 [Compound A-32] |  |  |  |  |  |  |  |  |  |
|  |  |  |  |  |  |  |  | O=C(Nc1ccc(-c2cc3ccccc3o2)nc1)c1ccc(Cl)cc1NCCN1CCNCC1 [Compound A-42] | >32 µg/mL |  | ++ (4 < MIC < 12) | ++ (4 < MIC < 12) | >32 µg/mL | ++ (4 < MIC < 12) | ++ (4 < MIC < 12) | ++ (4 < MIC < 12) | + (12 ≦ MIC ≦ 32) |
|  |  |  |  |  |  |  |  | CN(C)CCCNc1snc(C(=O)Nc2ccc(-c3cc4ccccc4s3)cc2)c1Cl [Compound A-47] | +++ (MIC ≦ 4) | +++ (MIC ≦ 4) | +++ (MIC ≦ 4) | +++ (MIC ≦ 4) | >32 µg/mL | +++ (MIC ≦ 4) | >32 µg/mL | +++ (MIC ≦ 4) | >32 µg/mL |
|  |  |  |  |  |  |  |  | O=C(Nc1ccc(-c2cc3ccccc3s2)cc1)c1cccnc1NCCN1CCCC1 [Compound A-49] | +++ (MIC ≦ 4) | +++ (MIC ≦ 4) | +++ (MIC ≦ 4) | +++ (MIC ≦ 4) | >32 µg/mL | +++ (MIC ≦ 4) | +++ (MIC ≦ 4) | +++ (MIC ≦ 4) | + (12 ≦ MIC ≦ 32) |
|  |  |  |  |  |  |  |  | CN(C)CCCNc1snc(C(=O)Nc2ccc(-c3cc4ccccc4s3)nc2)c1Cl [Compound A-67] | +++ (MIC ≦ 4) | +++ (MIC ≦ 4) | +++ (MIC ≦ 4) | +++ (MIC ≦ 4) | >32 µg/mL | +++ (MIC ≦ 4) | +++ (MIC ≦ 4) |  | >32 µg/mL |
|  |  |  |  |  |  |  |  | O=C(Nc1ccc(-c2cc3ccccc3s2)nc1)c1nsc(NCCN2CCCCC2)c1Cl [Compound A-69] | >32 µg/mL | >32 µg/mL | >32 µg/mL | >32 µg/mL | >32 µg/mL | >32 µg/mL | >32 µg/mL |  | >32 µg/mL |
|  |  |  |  |  |  |  |  | O=C(Nc1ccc(-c2cc3ccccc3s2)nc1)c1nsc(NCCN2CCNCC2)c1Cl [Compound A-70] | +++ (MIC ≦ 4) | +++ (MIC ≦ 4) | +++ (MIC ≦ 4) | +++ (MIC ≦ 4) | >32 µg/mL | +++ (MIC ≦ 4) | >32 µg/mL |  | >32 µg/mL |
|  |  |  |  |  |  |  |  | CN(CCCN)CCCNc1snc(C(=O)Nc2ccc(-c3cc4ccccc4s3)nc2)c1Cl [Compound A-71] | ++ (4 < MIC < 12) | +++ (MIC ≦ 4) | +++ (MIC ≦ 4) | +++ (MIC ≦ 4) | +++ (MIC ≦ 4) | +++ (MIC ≦ 4) | +++ (MIC ≦ 4) |  | + (12 ≦ MIC ≦ 32) |
|  |  |  |  |  |  |  |  | O=C(Nc1ccc(-c2cc3ccccc3s2)nc1)c1cccnc1NCCN1CCCCC1 [Compound A-72] | >32 µg/mL | >32 µg/mL | >32 µg/mL | >32 µg/mL | >32 µg/mL | >32 µg/mL | >32 µg/mL |  | >32 µg/mL |
|  |  |  |  |  |  |  |  | O=C(Nc1ccc(-c2cc3ccccc3s2)nc1)c1cccnc1NCCN1CCNCC1 [Compound A-73] | >32 µg/mL | >32 µg/mL | >32 µg/mL | >32 µg/mL | >32 µg/mL | >32 µg/mL | >32 µg/mL |  | >32 µg/mL |
|  |  |  |  |  |  |  |  | CN(C)CCCNc1ncccc1C(=O)Nc1ccc(-c2cc3ccccc3s2)nc1 [Compound A-74] | + (12 ≦ MIC ≦ 32) | ++ (4 < MIC < 12) | + (12 ≦ MIC ≦ 32) | ++ (4 < MIC < 12) | >32 µg/mL | ++ (4 < MIC < 12) | + (12 ≦ MIC ≦ 32) |  | + (12 ≦ MIC ≦ 32) |
|  |  |  |  |  |  |  |  | NCCCCNc1ncccc1C(=O)Nc1ccc(-c2cc3ccccc3s2)nc1 [Compound A-75] | >32 µg/mL | +++ (MIC ≦ 4) | +++ (MIC ≦ 4) | +++ (MIC ≦ 4) | >32 µg/mL | +++ (MIC ≦ 4) | +++ (MIC ≦ 4) |  | + (12 ≦ MIC ≦ 32) |
|  |  |  |  |  |  |  |  | CN(CCCN)CCCNc1ncccc1C(=O)Nc1ccc(-c2cc3ccccc3s2)nc1 [Compound A-76] | + (12 ≦ MIC ≦ 32) | ++ (4 < MIC < 12) | +++ (MIC ≦ 4) | ++ (4 < MIC < 12) | + (12 ≦ MIC ≦ 32) | +++ (MIC ≦ 4) | + (12 ≦ MIC ≦ 32) |  | + (12 ≦ MIC ≦ 32) |
